Assay results published in patent US20230085307A1, “PYRIDAZINONE COMPOUND AND HERBICIDE” (NISSAN CHEMICAL CORPORATION, priority 2019, published 2023).

Columns and labels:
barnyard grass [1] = assay: Test Example 3: herbicidal effect by foliage application, Wagner pot (Table 18, symbol H); format: in vivo, barnyard grass (Echinochloa crus-galli); conditions: 320 g/ha
In short: (§1)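 Plants were sown in alluvial soil held under 0.1–0.5 cm standing water and grown 14 days in a greenhouse at 25–30 °C. An emulsifiable formulation, water-diluted to the set dose, was then sprayed onto the foliage, and effects were scored three weeks later using previously defined criteria.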

Chinese sprangletop = assay: Test Example 3: herbicidal effect by foliage application, Wagner pot (Table 18, symbol D); format: in vivo, chinese sprangletop (Leptochloa chinensis); conditions: 320 g/ha
In short: as §1

rice flat sedge = assay: Test Example 3: herbicidal effect by foliage application, Wagner pot (Table 18, symbol E); format: in vivo, rice flat sedge (Cyperus iria); conditions: 320 g/ha
In short: as §1

southern crabgrass [2] = assay: Test Example 4: herbicidal effect by soil treatment (Table 19, symbol F); format: in vivo, southern crabgrass (Digitaria ciliaris); conditions: amount of applied herbicide 320 g/ha
In short: (§2)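 Applied as a water-diluted emulsion, the compound was sprayed onto soil covering newly sown seeds. Evaluation came three weeks after application, in a greenhouse held at 25° C. to 30° C.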

green foxtail [3] = assay: Test Example 4: herbicidal effect by soil treatment (Table 19, symbol G); format: in vivo, green foxtail (Setaria viridis); conditions: amount of applied herbicide 320 g/ha
In short: as §2

barnyard grass [4] = assay: Test Example 4: herbicidal effect by soil treatment (Table 19, symbol H); format: in vivo, barnyard grass (Echinochloa crus-galli); conditions: amount of applied herbicide 320 g/ha
In short: as §2

wild oat [5] = assay: Test Example 4: herbicidal effect by soil treatment (Table 19, symbol I); format: in vivo, wild oat (Avena fatua); conditions: amount of applied herbicide 320 g/ha
In short: as §2

blackgrass [6] = assay: Test Example 4: herbicidal effect by soil treatment (Table 19, symbol J); format: in vivo, blackgrass (Alopecurus myosuroides); conditions: amount of applied herbicide 320 g/ha
In short: as §2

Italian ryegrass [7] = assay: Test Example 4: herbicidal effect by soil treatment (Table 19, symbol K); format: in vivo, Italian ryegrass (Lolium multiflorum); conditions: amount of applied herbicide 320 g/ha
In short: as §2

windgrass [8] = assay: Test Example 4: herbicidal effect by soil treatment (Table 19, symbol L); format: in vivo, windgrass (Apera spica-venti); conditions: amount of applied herbicide 320 g/ha
In short: as §2

velvetleaf [9] = assay: Test Example 4: herbicidal effect by soil treatment (Table 19, symbol M); format: in vivo, velvetleaf (Abutilon theophrasti); conditions: amount of applied herbicide 320 g/ha
In short: as §2

redroot pigweed [10] = assay: Test Example 4: herbicidal effect by soil treatment (Table 19, symbol N); format: in vivo, redroot pigweed (Amaranthus retroflexus); conditions: amount of applied herbicide 320 g/ha
In short: as §2

lambsquarters [11] = assay: Test Example 4: herbicidal effect by soil treatment (Table 19, symbol O); format: in vivo, lambsquarters (Chenopodium album); conditions: amount of applied herbicide 320 g/ha
In short: as §2

chickweed [12] = assay: Test Example 4: herbicidal effect by soil treatment (Table 19, symbol P); format: in vivo, common chickweed (Stellaria media); conditions: amount of applied herbicide 320 g/ha
In short: as §2

persian speedwell [13] = assay: Test Example 4: herbicidal effect by soil treatment (Table 19, symbol R); format: in vivo, Persian speedwell (Veronica persica); conditions: amount of applied herbicide 320 g/ha
In short: as §2

southern crabgrass [14] = assay: Test Example 5: herbicidal effect by foliage application, plastic box (Table 20, symbol F); format: in vivo, southern crabgrass (Digitaria ciliaris); conditions: foliage application, 320 g/ha, evaluated three weeks after application
In short: (§3)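 Sow seeds spot-wise in sterilized diluvial soil; cover with ~1.5 cm soil. Grow 14 days in greenhouse, 25° C. to 30° C. Spray foliage with emulsion diluted to predetermined amount. Rate effect after 3 weeks.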

green foxtail [15] = assay: Test Example 5: herbicidal effect by foliage application, plastic box (Table 20, symbol G); format: in vivo, green foxtail (Setaria viridis); conditions: foliage application, 320 g/ha, evaluated three weeks after application
In short: as §3

barnyard grass [16] = assay: Test Example 5: herbicidal effect by foliage application, plastic box (Table 20, symbol H); format: in vivo, barnyard grass (Echinochloa crus-galli); conditions: foliage application, 320 g/ha, evaluated three weeks after application
In short: as §3

wild oat [17] = assay: Test Example 5: herbicidal effect by foliage application, plastic box (Table 20, symbol I); format: in vivo, wild oat (Avena fatua); conditions: foliage application, 320 g/ha, evaluated three weeks after application
In short: as §3

blackgrass [18] = assay: Test Example 5: herbicidal effect by foliage application, plastic box (Table 20, symbol J); format: in vivo, blackgrass (Alopecurus myosuroides); conditions: foliage application, 320 g/ha, evaluated three weeks after application
In short: as §3

Italian ryegrass [19] = assay: Test Example 5: herbicidal effect by foliage application, plastic box (Table 20, symbol K); format: in vivo, Italian ryegrass (Lolium multiflorum); conditions: foliage application, 320 g/ha, evaluated three weeks after application
In short: as §3

windgrass [20] = assay: Test Example 5: herbicidal effect by foliage application, plastic box (Table 20, symbol L); format: in vivo, windgrass (Apera spica-venti); conditions: foliage application, 320 g/ha, evaluated three weeks after application
In short: as §3

velvetleaf [21] = assay: Test Example 5: herbicidal effect by foliage application, plastic box (Table 20, symbol M); format: in vivo, velvetleaf (Abutilon theophrasti); conditions: foliage application, 320 g/ha, evaluated three weeks after application
In short: as §3

redroot pigweed [22] = assay: Test Example 5: herbicidal effect by foliage application, plastic box (Table 20, symbol N); format: in vivo, redroot pigweed (Amaranthus retroflexus); conditions: foliage application, 320 g/ha, evaluated three weeks after application
In short: as §3

lambsquarters [23] = assay: Test Example 5: herbicidal effect by foliage application, plastic box (Table 20, symbol O); format: in vivo, lambsquarters (Chenopodium album); conditions: foliage application, 320 g/ha, evaluated three weeks after application
In short: as §3

chickweed [24] = assay: Test Example 5: herbicidal effect by foliage application, plastic box (Table 20, symbol P); format: in vivo, common chickweed (Stellaria media); conditions: foliage application, 320 g/ha, evaluated three weeks after application
In short: as §3

false cleavers = assay: Test Example 5: herbicidal effect by foliage application, plastic box (Table 20, symbol Q); format: in vivo, false cleavers (Galium spurium); conditions: foliage application, 320 g/ha, evaluated three weeks after application
In short: as §3

persian speedwell [25] = assay: Test Example 5: herbicidal effect by foliage application, plastic box (Table 20, symbol R); format: in vivo, Persian speedwell (Veronica persica); conditions: foliage application, 320 g/ha, evaluated three weeks after application
In short: as §3

## COc1ccc(-c2sc3ccc(Cl)cc3c2-c2c(O)c(C)nn(C)c2=O)cc1 [2-103]
Barnyard grass [1]
  herbicidal effect on H (barnyard grass), rating 0-5: 3 (Herbicidal rate of 40% or more and less than 70%)
Chinese sprangletop
  herbicidal effect on D (Chinese sprangletop), rating 0-5: 2 (Herbicidal rate of 20% or more and less than 40%)
Rice flat sedge
  herbicidal effect on E (rice flat sedge), rating 0-5: 5 (Herbicidal rate of 90% or more (almost completely withered))
Southern crabgrass [2]
  F: southern crabgrass, herbicidal effect rating: 0 (Herbicidal rate of 5% or less (almost no effect))
Green foxtail [3]
  G: green foxtail, herbicidal effect rating: 0 (Herbicidal rate of 5% or less (almost no effect))
Barnyard grass [4]
  H: barnyard grass, herbicidal effect rating: 0 (Herbicidal rate of 5% or less (almost no effect))
Wild oat [5]
  I: wild oat, herbicidal effect rating: 0 (Herbicidal rate of 5% or less (almost no effect))
Blackgrass [6]
  J: blackgrass, herbicidal effect rating: 0 (Herbicidal rate of 5% or less (almost no effect))
Italian ryegrass [7]
  K: Italian ryegrass, herbicidal effect rating: 0 (Herbicidal rate of 5% or less (almost no effect))
Windgrass [8]
  L: windgrass, herbicidal effect rating: 0 (Herbicidal rate of 5% or less (almost no effect))
Velvetleaf [9]
  M: velvetleaf, herbicidal effect rating: 3 (Herbicidal rate of 40% or more and less than 70%)
Redroot pigweed [10]
  N: redroot pigweed, herbicidal effect rating: 4 (Herbicidal rate of 70% or more and less than 90%)
Lambsquarters [11]
  O: lambsquarters, herbicidal effect rating: 4 (Herbicidal rate of 70% or more and less than 90%)
Chickweed [12]
  P: chickweed, herbicidal effect rating: 4 (Herbicidal rate of 70% or more and less than 90%)
Persian speedwell [13]
  R: persian speedwell, herbicidal effect rating: 5 (Herbicidal rate of 90% or more (almost completely withered))
Southern crabgrass [14]
  herbicidal effect on F: southern crabgrass: 0 (Herbicidal rate of 5% or less (almost no effect))
Green foxtail [15]
  herbicidal effect on G: green foxtail: 0 (Herbicidal rate of 5% or less (almost no effect))
Barnyard grass [16]
  herbicidal effect on H: barnyard grass: 0 (Herbicidal rate of 5% or less (almost no effect))
Wild oat [17]
  herbicidal effect on I: wild oat: 0 (Herbicidal rate of 5% or less (almost no effect))
Blackgrass [18]
  herbicidal effect on J: blackgrass: 1 (Herbicidal rate of 5% or more and less than 20%)
Italian ryegrass [19]
  herbicidal effect on K: Italian ryegrass: 0 (Herbicidal rate of 5% or less (almost no effect))
Windgrass [20]
  herbicidal effect on L: windgrass: 5 (Herbicidal rate of 90% or more (almost completely withered))
Velvetleaf [21]
  herbicidal effect on M: velvetleaf: 4 (Herbicidal rate of 70% or more and less than 90%)
Redroot pigweed [22]
  herbicidal effect on N: redroot pigweed: 3 (Herbicidal rate of 40% or more and less than 70%)
Lambsquarters [23]
  herbicidal effect on O: lambsquarters: 4 (Herbicidal rate of 70% or more and less than 90%)
Chickweed [24]
  herbicidal effect on P: chickweed: 5 (Herbicidal rate of 90% or more (almost completely withered))
False cleavers
  herbicidal effect on Q: false cleavers: 3 (Herbicidal rate of 40% or more and less than 70%)
Persian speedwell [25]
  herbicidal effect on R: persian speedwell: 5 (Herbicidal rate of 90% or more (almost completely withered))

## COc1cc(F)ccc1-c1sc2ccc(-c3ccoc3)cc2c1-c1c(O)c(C)nn(C)c1=O [2-170]
Southern crabgrass [2]
  F: southern crabgrass, herbicidal effect rating: 3 (Herbicidal rate of 40% or more and less than 70%)
Green foxtail [3]
  G: green foxtail, herbicidal effect rating: 0 (Herbicidal rate of 5% or less (almost no effect))
Barnyard grass [4]
  H: barnyard grass, herbicidal effect rating: 0 (Herbicidal rate of 5% or less (almost no effect))
Wild oat [5]
  I: wild oat, herbicidal effect rating: 0 (Herbicidal rate of 5% or less (almost no effect))
Blackgrass [6]
  J: blackgrass, herbicidal effect rating: 0 (Herbicidal rate of 5% or less (almost no effect))
Italian ryegrass [7]
  K: Italian ryegrass, herbicidal effect rating: 0 (Herbicidal rate of 5% or less (almost no effect))
Windgrass [8]
  L: windgrass, herbicidal effect rating: 0 (Herbicidal rate of 5% or less (almost no effect))
Velvetleaf [9]
  M: velvetleaf, herbicidal effect rating: 0 (Herbicidal rate of 5% or less (almost no effect))
Redroot pigweed [10]
  N: redroot pigweed, herbicidal effect rating: 0 (Herbicidal rate of 5% or less (almost no effect))
Lambsquarters [11]
  O: lambsquarters, herbicidal effect rating: 2 (Herbicidal rate of 20% or more and less than 40%)
Chickweed [12]
  P: chickweed, herbicidal effect rating: 0 (Herbicidal rate of 5% or less (almost no effect))
Persian speedwell [13]
  R: persian speedwell, herbicidal effect rating: 0 (Herbicidal rate of 5% or less (almost no effect))
Southern crabgrass [14]
  herbicidal effect on F: southern crabgrass (criteria 0-5): 1 (Herbicidal rate of 5% or more and less than 20%)
Green foxtail [15]
  herbicidal effect on G: green foxtail (criteria 0-5): 0 (Herbicidal rate of 5% or less (almost no effect))
Barnyard grass [16]
  herbicidal effect on H: barnyard grass (criteria 0-5): 0 (Herbicidal rate of 5% or less (almost no effect))
Wild oat [17]
  herbicidal effect on I: wild oat (criteria 0-5): 0 (Herbicidal rate of 5% or less (almost no effect))
Blackgrass [18]
  herbicidal effect on J: blackgrass (criteria 0-5): 0 (Herbicidal rate of 5% or less (almost no effect))
Italian ryegrass [19]
  herbicidal effect on K: Italian ryegrass (criteria 0-5): 0 (Herbicidal rate of 5% or less (almost no effect))
Windgrass [20]
  herbicidal effect on L: windgrass (criteria 0-5): 0 (Herbicidal rate of 5% or less (almost no effect))
Velvetleaf [21]
  herbicidal effect on M: velvetleaf (criteria 0-5): 3 (Herbicidal rate of 40% or more and less than 70%)
Redroot pigweed [22]
  herbicidal effect on N: redroot pigweed (criteria 0-5): 3 (Herbicidal rate of 40% or more and less than 70%)
Lambsquarters [23]
  herbicidal effect on O: lambsquarters (criteria 0-5): 3 (Herbicidal rate of 40% or more and less than 70%)
Chickweed [24]
  herbicidal effect on P: chickweed (criteria 0-5): 5 (Herbicidal rate of 90% or more (almost completely withered))
False cleavers
  herbicidal effect on Q: false cleavers (criteria 0-5): 0 (Herbicidal rate of 5% or less (almost no effect))
Persian speedwell [25]
  herbicidal effect on R: persian speedwell (criteria 0-5): 1 (Herbicidal rate of 5% or more and less than 20%)
